According to patent US6602852B1, “Basic peptides and pharmaceutical compositions containing same” (NST NeuroSurvival Technologies, Ltd., priority 1998, dated 2003):

Tests used:
Cardiolipin (CL) = system: Cardiolipin (CL)
Description: As control, wells were coated with ethanol only. The coated plates were washed 3 times with 100 ul of blocking buffer (PBS containing 0.3% gelatin (Sigma) and 1 mM EDTA) to block non specific binding. A 5 min incubation time was used between each wash. Normal plasma (Ilex, Italy, 84670-11) and Lupus plasma (either from Gradipore, Australia, LAHP-1, or from Biopool, Ventura, Calif.) were prepared according to the producer instruction. The plasma was diluted 1/10 in the blocking buffer and was added to the CL and ethanol coated wells. Binding of different NST 300 compounds to CL was performed by addition of serial dilutions of NST compounds (prepared in the plasma/blocking buffer solution) to the CL or ethanol coated wells. Following 3 hr incubation, the plates were washed twice with PBS/BSA buffer (0.4% bovine serum albumin (BSA) in PBS). For detection of anticardiolipin binding property of the tested plasma, the plates were incubated with a 1/10000 dilution of Peroxidase-conjugated affinity purified Goat anti-human IgG (Jackson Immunoresearch lab.) in PBS/BSA buffer for 1 hour. The plates were then washed 3 times with PBS/BSA buffer, and color reaction was developed by incubation with 100 ul of 0-phenylenediamine (OPD) dihydrochloride (Sigma p-7288) at a concentration of 0.4 mg/ml in 0.05 M phosphate citrate buffer, pH 5.0 supplemented, with 4 ul of 30% hydrogen peroxide (Aldrich) for 10 ml mixture. To detect the level of NST 300 compound that was bound to CL, parallel wells were incubated with streptavidin conugated to OPD (SA-OPD, Jackson Immunoresearch lab.), that specifically recognize the biotinylated NST 300 compound. The resulting colour changes were recorded at […] using a Bio Tek Elx800 Eliza reader.

[1] = system: procoagulant activity of apoptotic HeLa S3 cells; details: 0.5 μM
Description: In the standard APTT test, clot formation is triggered by recalcification of plasma and addition of cephalin, i.e. negatively-charged phospholipids. Time until clot formation was measured as described in Example 3. […] In the modified APTT test, used in the present study, the addition of negatively-charged phospholipids (cephalin) was replaced by addition of apoptotic cells.
The cultured medium was discarded, and cells that were loosely attached to the growing surface, were collected in PBS, as described in Example 2B. These cells were washed and resuspended in TBS, and were regarded as advanced apoptotic cells. Equal numbers of apoptotic or control non-treated cells (10^5) in a volume of 100 μl, were mixed with 100 μl of 25 mM of CaCl2 and the clotting time was measured. […] Inhibition of their procoagulant activity by NST300 compounds was tested following pre-incubation of apoptotic cells with the different NST300 compounds.
Pre-incubation of equal numbers of apoptotic or control non-treated cells (10^5) with NST300 compounds was for 10 minutes at room temperature in a final volume of 100 μl. The compounds were used at concentration of 0.5 μM. The results can be seen in FIG. 5a.

BeWo cells = system: BeWo cells
Description: (§1) Anti β2GPI antibodies are present in sera of APS patients. […] For cell-ELISA tests, HUVEC cells or BeWo cells (both at 40,000/well), were plated on 96 well tissue culture plates (Nunc) in 200 ul of the culture medium, and allowed to grow for 18-22 hours. Following 2 washes with Hepes buffer (10 mM Hepes pH, 8, 140 mM NaCl) and 5 min incubation with the culture medium, the wells were incubated for 3 hr with 10% of normal plasma in PBS (as a source of β2GPI protein), supplemented with 1/500 of goat anti-human Apolipoprotein-H (β2GPI) (Affinity Biologicals, Pa.) Parallel control wells were incubated with 10% of normal plasma from Ilex. Serial dilutions of NST compounds were prepared in plasma/PBS. Washes and development were as described for anti CL ELISA.

HUVEC cells = system: HUVEC cells
Description: as §1

Myristate-KKKKKRFSFKKSFKLSGFSFKKNKKK (SEQUENCE ID NO. 2)-(biotin) [NST302]
concentration at which binding to CL reached saturation (Cardiolipin (CL); CL coated ELISA wells): about 0.3 μM | concentration from which displacement of Lupus plasma binding to CL starts (Cardiolipin (CL); Lupus plasma from Gradipore): 0.1 µM | concentration of maximum effect of displacement of Lupus plasma from CL (Cardiolipin (CL); Lupus plasma from Gradipore): 2.5 µM | effect on procoagulant effect of apoptotic cells ([1]; FIG. 5a): fully reversing | increase of clotting time by a factor ([1]; apoptotic cells): 2 | concentration of maximum effect of displacement of anti β2GPI (BeWo cells): 50 µM | blocking of binding to pro-coagulant surface of cells (BeWo cells; FIG. 6e): dramatic and significant ability to block binding | concentration of maximum effect of displacement of anti β2GPI (HUVEC cells): 50 µM | blocking of binding to pro-coagulant surface of cells (HUVEC cells; FIG. 6d): dramatic and significant ability to block binding
